Assay results as given in patent US20230129359A1, “MUSCARINIC RECEPTOR 4 ANTAGONISTS AND METHODS OF USE” (Neurocrine Biosciences, Inc., priority 2020, published 2023).

Biological target: T1, human M4 receptor (Homo sapiens, UniProt P08173)
T1 construct: expressed in transfected cells; host or cells: CHO cells
T1 sequence (P08173 1-479): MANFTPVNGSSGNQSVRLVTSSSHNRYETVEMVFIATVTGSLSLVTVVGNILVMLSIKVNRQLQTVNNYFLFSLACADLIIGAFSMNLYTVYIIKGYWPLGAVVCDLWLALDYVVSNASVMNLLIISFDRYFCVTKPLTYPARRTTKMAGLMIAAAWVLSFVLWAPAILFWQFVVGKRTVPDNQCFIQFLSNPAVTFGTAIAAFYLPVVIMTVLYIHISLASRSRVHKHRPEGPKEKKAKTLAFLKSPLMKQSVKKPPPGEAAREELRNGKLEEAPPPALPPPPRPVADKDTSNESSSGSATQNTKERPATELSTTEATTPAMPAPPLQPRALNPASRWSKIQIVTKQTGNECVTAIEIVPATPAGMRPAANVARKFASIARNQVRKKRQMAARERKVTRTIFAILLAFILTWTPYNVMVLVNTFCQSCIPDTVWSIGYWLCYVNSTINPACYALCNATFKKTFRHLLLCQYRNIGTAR
Assay: Radioligand ([3H]N-methylscopolamine) binding assay, membranes from CHO cells expressing human M4 receptor
Settings: Ki against human M4 receptor; membranes from CHO cells; tritiated N-methylscopolamine 1.5 nM; read-out: K
Summary of the method: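 Competition binding used CHO-cell membranes expressing human M4 with 1.5 nM [3H]N-methylscopolamine and twelve compound concentrations ([…]). Incubation was 90 minutes at 37 °C in 50 mM HEPES, 100 mM NaCl, 5 mM MgCl2, 1 mM EDTA, pH 7.4. Bound ligand was collected by filtration onto PEI-treated glass fibre for Ki.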

SMILES | Ki [µM]
C[C@@H]1CN(c2cnc3ccccc3n2)[C@@H](C)CN1C(=O)OC1CC2(C1)CN(Cc1ccc(F)cc1)C2 [Compound 394, 2-[(4-fluorophenyl)methyl]-2-azaspiro[3.3]heptan-6-yl (2R,5S)-2,5-dimethyl-4-(quinoxalin-2-yl)piperazine-1-carboxylate] | 0.01 to 0.1
COc1ccc2nc(N3C[C@@H](C)N(C(=O)OC4CC5(C4)CN(Cc4ccc(F)cc4)C5)[C@@H](C)C3)cnc2c1 [Compound 395, 2-[(4-fluorophenyl)methyl]-2-azaspiro[3.3]heptan-6-yl (2R,6S)-4-(6-methoxyquinoxalin-2-yl)-2,6-dimethylpiperazine-1-carboxylate] | 0.01 to 0.1
COc1ccc2nc(N3C[C@@H](C)N(C(=O)OC4CC5(C4)CN(Cc4ccc(F)cc4)C5)C[C@@H]3C)cnc2c1 [Compound 396, 2-[(4-fluorophenyl)methyl]-2-azaspiro[3.3]heptan-6-yl (2R,5S)-4-(6-methoxyquinoxalin-2-yl)-2,5-dimethylpiperazine-1-carboxylate] | 0.01 to 0.1
C[C@@H]1CN(c2cnc3cc(F)ccc3n2)[C@@H](C)CN1C(=O)OC1CC2(C1)CN(Cc1ccc(F)cc1)C2 [Compound 397, 2-[(4-fluorophenyl)methyl]-2-azaspiro[3.3]heptan-6-yl (2R,5S)-4-(6-fluoroquinoxalin-2-yl)-2,5-dimethylpiperazin-1-carboxylate] | 0.01 to 0.1
C[C@@H]1CN(c2cnc(C(F)(F)F)cn2)C[C@@H](C)N1C(=O)OC1CC2(C1)CN(Cc1ccc(F)cc1)C2 [Compound 398, 2-[(4-fluorophenyl)methyl]-2-azaspiro[3.3]heptan-6-yl (2R,6R)-2,6-dimethyl-4-[5-(trifluoromethyl)pyrazin-2-yl]piperazine-1-carboxylate] | 0.01 to 0.1
C[C@@H]1CN(c2cnc(C(F)(F)F)cn2)C[C@H](C)N1C(=O)OC1CC2(C1)CN(Cc1ccc(F)cc1)C2 [Compound 399, 2-[(4-fluorophenyl)methyl]-2-azaspiro[3.3]heptan-6-yl (2R,6S)-2,6-dimethyl-4-[5-(trifluoromethyl)pyrazin-2-yl]piperazine-1-carboxylate] | 0.01 to 0.1
C[C@@H]1CN(c2cnc(C(F)(F)F)cn2)[C@@H](C)CN1C(=O)OC1CC2(C1)CN(Cc1ccc(F)cc1)C2 [Compound 400, 2-[(4-fluorophenyl)methyl]-2-azaspiro[3.3]heptan-6-yl (2R,5S)-2,5-dimethyl-4-[5-(trifluoromethyl)pyrazin-2-yl]piperazine-1-carboxylate] | 0.01 to 0.1
C[C@@H]1CN(c2nc3ccc(F)cc3s2)C[C@@H](C)N1C(=O)OC1CC2(C1)CN(Cc1ccc(C(N)=O)cc1)C2 [Compound 402, 2-[(4-carbamoylphenyl)methyl]-2-azaspiro[3.3]heptan-6-yl (2R,6R)-4-(6-fluoro-1,3-benzothiazol-2-yl)-2,6-dimethylpiperazine-1-carboxylate] | 0.01 to 0.1
C[C@@H]1CN(c2ncc3ccccc3n2)C[C@H](C)N1C(=O)OC1CC2(C1)CN(Cc1ccncc1)C2 [Compound 421, 2-(pyridin-4-ylmethyl)-2-azaspiro[3.3]heptan-6-yl (2R,6S)-2,6-dimethyl-4-(quinazolin-2-yl)piperazine-1-carboxylate] | 0.1 to 1
C[C@@H]1CN(c2nc3ccc(C(F)(F)F)cc3o2)[C@@H](C)CN1C(=O)OC1CC2(C1)CN(Cc1ccccc1)C2 [Compound 430, 2-benzyl-2-azaspiro[3.3]heptan-6-yl (2R,5S)-2,5-dimethyl-4-[6-(trifluoromethyl)-1,3-benzoxazol-2-yl]piperazine-1-carboxylate] | < 0.01
C[C@@H]1CN(c2nc3ccc(C#N)cc3s2)[C@@H](C)CN1C(=O)OC1CC2(C1)CN(Cc1ccccc1)C2 [Compound 435, 2-benzyl-2-azaspiro[3.3]heptan-6-yl (2R,5S)-4-(6-cyano-1,3-benzothiazol-2-yl)-2,5-dimethylpiperazine-1-carboxylate] | 0.1 to 1
O=C(OC1CC2(C1)CN(Cc1ccccc1)C2)N1C2COCC1CN(c1nc3ccc(C(F)(F)F)cc3s1)C2 [Compound 437, 2-benzyl-2-azaspiro[3.3]heptan-6-yl 7-[6-(trifluoromethyl)-1,3-benzothiazol-2-yl]-3-oxa-7,9-diazabicyclo[3.3.1]nonane-9-carboxylate] | 0.01 to 0.1
C[C@@H]1CN(c2nc3cc(F)ccc3s2)[C@@H](C)CN1C(=O)OC1CC2(C1)CN(Cc1ccccc1)C2 [Compound 440, 2-benzyl-2-azaspiro[3.3]heptan-6-yl (2R,5S)-4-(5-fluoro-1,3-benzothiazol-2-yl)-2,5-dimethylpiperazine-1-carboxylate] | < 0.01
C[C@@H]1CN(c2nc3cc(F)ccc3o2)[C@@H](C)CN1C(=O)OC1CC2(C1)CN(Cc1ccccc1)C2 [Compound 443, 2-benzyl-2-azaspiro[3.3]heptan-6-yl (2R,5S)-4-(5-fluoro-1,3-benzoxazol-2-yl)-2,5-dimethylpiperazine-1-carboxylate] | 0.01 to 0.1

The next lines start with the values.

Ki [µM] | SMILES
< 0.01 | C[C@@H]1CN(c2nc3ccc(C(F)(F)F)cc3s2)C[C@H](C)N1C(=O)OC1CC2(C1)CN(Cc1ccncc1)C2 [Compound 416, 2-(pyridin-4-ylmethyl)-2-azaspiro[3.3]heptan-6-yl (2R,6)S-2,6-dimethyl-4-[6-(trifluoromethyl)-1,3-benzothiazol-2-yl]piperazine-1-carboxylate]
< 0.01 | C[C@@H]1CN(c2nc3ccc(C(F)(F)F)cc3o2)C[C@H](C)N1C(=O)OC1CC2(C1)CN(Cc1ccccc1)C2 [Compound 428, 2-benzyl-2-azaspiro[3.3]heptan-6-yl (2R,6S)-2,6-dimethyl-4-[6-(trifluoromethyl)-1,3-benzoxazol-2-yl]piperazine-1-carboxylate]
0.01 to 0.1 | C[C@@H]1CN(c2nc3ccc(C(F)(F)F)cc3o2)C[C@@H](C)N1C(=O)OC1CC2(C1)CN(Cc1ccccc1)C2 [Compound 429, 2-benzyl-2-azaspiro[3.3]heptan-6-yl (2R,6R)-2,6-dimethyl-4-[6-(trifluoromethyl)-1,3-benzoxazol-2-yl]piperazine-1-carboxylate]
0.01 to 0.1 | C[C@@H]1CN(c2nc3ncc(C(F)(F)F)cc3s2)C[C@H](C)N1C(=O)OC1CC2(C1)CN(Cc1ccccc1)C2 [Compound 431, 2-benzyl-2-azaspiro[3.3]heptan-6-yl (2R,6S)-2,6-dimethyl-4-[6-(trifluoromethyl)-[1,3]thiazolo[4,5-b]pyridin-2-yl]piperazine-1-carboxylate]
0.01 to 0.1 | C[C@@H]1CN(c2nc3ncc(C(F)(F)F)cc3s2)C[C@@H](C)N1C(=O)OC1CC2(C1)CN(Cc1ccccc1)C2 [Compound 432, 2-benzyl-2-azaspiro[3.3]heptan-6-yl (2R,6R)-2,6-dimethyl-4-[6-(trifluoromethyl)-[1,3]thiazolo[4,5-b]pyridin-2-yl]piperazine-1-carboxylate]
0.01 to 0.1 | C[C@@H]1CN(c2nc3ncc(C(F)(F)F)cc3s2)[C@@H](C)CN1C(=O)OC1CC2(C1)CN(Cc1ccccc1)C2 [Compound 433, 2-benzyl-2-azaspiro[3.3]heptan-6-yl (2R,5S)-2,5-dimethyl-4-[6-(trifluoromethyl)-[1,3]thiazolo[4,5-b]pyridin-2-yl]piperazine-1-carboxylate]
< 0.01 | C[C@@H]1CN(c2nc3cc(F)ccc3s2)C[C@H](C)N1C(=O)OC1CC2(C1)CN(Cc1ccccc1)C2 [Compound 438, 2-benzyl-2-azaspiro[3.3]heptan-6-yl (2R,6S)-4-(5-fluoro-1,3-benzothiazol-2-yl)-2,6-dimethylpiperazine-1-carboxylate]
0.01 to 0.1 | C[C@@H]1CN(c2nc3cc(F)ccc3s2)C[C@@H](C)N1C(=O)OC1CC2(C1)CN(Cc1ccccc1)C2 [Compound 439, 2-benzyl-2-azaspiro[3.3]heptan-6-yl (2R,6R)-4-(5-fluoro-1,3-benzothiazol-2-yl)-2,6-dimethylpiperazine-1-carboxylate]
0.01 to 0.1 | C[C@@H]1CN(c2nc3cc(F)ccc3o2)C[C@H](C)N1C(=O)OC1CC2(C1)CN(Cc1ccccc1)C2 [Compound 441, 2-benzyl-2-azaspiro[3.3]heptan-6-yl (2R,6S)-4-(5-fluoro-1,3-benzoxazol-2-yl)-2,6-dimethylpiperazine-1-carboxylate]
0.1 to 1 | C[C@@H]1CN(c2nc3cc(F)ccc3o2)C[C@@H](C)N1C(=O)OC1CC2(C1)CN(Cc1ccccc1)C2 [Compound 442, 2-benzyl-2-azaspiro[3.3]heptan-6-yl (2R,6R)-4-(5-fluoro-1,3-benzoxazol-2-yl)-2,6-dimethylpiperazine-1-carboxylate]
0.01 to 0.1 | C[C@@H]1CN(c2nc3ccc(F)cc3o2)C[C@H](C)N1C(=O)OC1CC2(C1)CN(Cc1ccccc1)C2 [Compound 444, 2-benzyl-2-azaspiro[3.3]heptan-6-yl (2R,6S)-4-(6-fluoro-1,3-benzoxazol-2-yl)-2,6-dimethylpiperazine-1-carboxylate]
0.01 to 0.1 | C[C@@H]1CN(c2nc3ccc(F)cc3o2)C[C@@H](C)N1C(=O)OC1CC2(C1)CN(Cc1ccccc1)C2 [Compound 445, 2-benzyl-2-azaspiro[3.3]heptan-6-yl (2R,6R)-4-(6-fluoro-1,3-benzoxazol-2-yl)-2,6-dimethylpiperazine-1-carboxylate]
